Data as given in patent publication US7235588B2, “Method for reducing hypertension and heart failure” (The Research Foundation of State University of New York, priority 2001, dated 2007).
Entries after “also recorded” stand apart in the source; their conditions may differ.

Assays:
[1] = tested on: male C57/BL6 mice; experiment: Transverse aortic constriction (TAC) induced left ventricular hypertrophy in mice; format: in vivo
Procedure: Pressure overload was produced by transverse aortic constriction (TAC) to induce left ventricular hypertrophy (FIG. 1). Briefly, male C57/BL6 mice, weighing 20 to 24 grams, were anesthetized by intra-peritoneal injection of a cocktail of ketamine (100 mg/kg) and xylazine ([…]). The mice were shaved, restrained, and orally intubated (under direct vision via a vertical cervical incision) using a 22 guage blunt feeding needle. Respiration was artificially controlled (tidal volume of 0.1 to 0.3 ml) at a respiratory rate of 110 to 150 breaths/minute using a ventilator (Harvard Apparatus Rodent Ventilator, model 683). A median sternotomy was performed and the sternum retracted. The thymus was retracted anteriorly and the aortic arch identified and ligated (using 8.0 nylon suture; Ethicon) between the innominate and left common carotid artery with an overlying 27-guage needle; and then the needle removed to leave a discrete region of stenosis. The chest was then closed in two layers (using 6.0 vicryl suture, Ethicon) and the pneumothorax evacuated. Some mice were subjected to a sham operation in which the aortic arch was visualized but not banded. The mice were then extubated and monitored post-op for 3 to 12 hours. The survival rate at the end of the learning period is greater than 90%.
Nine days post-op, the hearts were removed from heparinized (500 U) mice and euthanized with a lethal dose of pentobarbital (150 mg/kg). The hearts were analyzed by visual inspection of a cross-section of the heart (FIG. 2A), determination of heart to body weight ratio (FIG. 2B), and light microscopy of the cardiomyocytes in the left ventricular (FIG. 2C), and activation of artiel natuiretic factor (ANF), a specific molecular marker for hypertrophy (FIG. 3). Based on these determinations, all trans-aortic constricted mice developed well-defined left ventricular hypertrophy.
To determine whether tyrphostin AG490 could reverse the hypertrophy induced by traverse aortic constriction, tyrphostin AG490 (5 μM) was administered to the mice, intra-peritoneal, 24 hours before being subjected to transverse aortic constriction and every 24 hours thereafter for the duration of the study (9 days).

[2] = tested on: angiotensinogen mRNA; experiment: Angiotensinogen mRNA in hearts subjected to ischemia/reperfusion (primer extension assay); set-up: species or system rat; conditions: 30 min ischemia and 120 min reperfusion
Procedure: Ischemia was induced by a modified Langendorf-reperfusion method in rat hearts. Hearts from adult male rats were randomly divided into 4 groups and subjected to ischemia/reperfusion. In the ischemic group, hearts were perfused with Krebs-Henseleit buffer for 60 minutes, followed by 30 minutes of global ischemia. In the ischemic/reperfused group, hearts were perfused for 60 minutes, followed by 30 minutes of global ischemia and 120 minutes of reperfusion. Control group hearts were perfused for the same lengths of time.
Rat hearts subjected to ischemia/reperfusion were tested to determine whether activation of the renin-angiotensin system, as reflected by an increase in angiotensinogen mRNA, occurs in ischemic injury. The level of angiotensinogen mRNA was analyzed by primer extension assay using gene-specific DNA probes. A DNA primer spanning the complementary sequence of the rat angiotensinogen cDNA between nucleotides 302 and 279 (5′-[…]-3′) SEQ ID NO: 1 was end-labeled and used to evaluate the expression of angiotensinogen mRNA in total RNA isolated from the rat heart. The primer extension protocol was performed according to instructions provided by the supplier (Progema). Rat GAPDH cDNA specific primer was used as control. There was a marked increase in mRNA level after 30 minutes of ischemia and 120 minutes of reperfusion (FIG. 5A). […]

[3] = tested on: hearts subjected to ischemia/reperfusion; conditions: cited from earlier work
[4] = tested on: spontaneously hypertensive rats; experiment: Blood pressure in spontaneously hypertensive rats; format: in vivo, rat; conditions: 5 micromoles, FIG. 9
Procedure: Adult spontaneously hypertensive rats, which are genetically predisposed to hypertension, and normotensive rats were anesthetized with pentobarbital sodium (65 mg/kg ip) in preparation for surgery. […] Teflon arterial catheter (ID […]) was inserted into the left femoral artery. The catheter was tunneled under the skin and exited at the nape of the rat's neck and connected to a 26 G needle capped on a port and flushed with 1:3 heparin saline. The rats were housed individually after surgery, and allowed 48 hours to recover from the operation. Systolic and diastolic blood pressure were directly measured using the connection to the port placed in the rat's neck to a manual transducer.

[5] = biological target: T1, Jak2 (Rattus norvegicus, UniProt Q62689); experiment: Phosphotyrosine assay of Jak2 in hearts subjected to ischemia/reperfusion; conditions: ischemic heart, FIG. 6A
T1 construct: nuclear extracts from hearts subjected to ischemia/reperfusion in presence of absence of tyrphostin AG490 were immunoprecipitated; from tissue; host or cells: rat heart (nuclear extracts)
T1 sequence (Q62689 whole entry, the tested form may be a part): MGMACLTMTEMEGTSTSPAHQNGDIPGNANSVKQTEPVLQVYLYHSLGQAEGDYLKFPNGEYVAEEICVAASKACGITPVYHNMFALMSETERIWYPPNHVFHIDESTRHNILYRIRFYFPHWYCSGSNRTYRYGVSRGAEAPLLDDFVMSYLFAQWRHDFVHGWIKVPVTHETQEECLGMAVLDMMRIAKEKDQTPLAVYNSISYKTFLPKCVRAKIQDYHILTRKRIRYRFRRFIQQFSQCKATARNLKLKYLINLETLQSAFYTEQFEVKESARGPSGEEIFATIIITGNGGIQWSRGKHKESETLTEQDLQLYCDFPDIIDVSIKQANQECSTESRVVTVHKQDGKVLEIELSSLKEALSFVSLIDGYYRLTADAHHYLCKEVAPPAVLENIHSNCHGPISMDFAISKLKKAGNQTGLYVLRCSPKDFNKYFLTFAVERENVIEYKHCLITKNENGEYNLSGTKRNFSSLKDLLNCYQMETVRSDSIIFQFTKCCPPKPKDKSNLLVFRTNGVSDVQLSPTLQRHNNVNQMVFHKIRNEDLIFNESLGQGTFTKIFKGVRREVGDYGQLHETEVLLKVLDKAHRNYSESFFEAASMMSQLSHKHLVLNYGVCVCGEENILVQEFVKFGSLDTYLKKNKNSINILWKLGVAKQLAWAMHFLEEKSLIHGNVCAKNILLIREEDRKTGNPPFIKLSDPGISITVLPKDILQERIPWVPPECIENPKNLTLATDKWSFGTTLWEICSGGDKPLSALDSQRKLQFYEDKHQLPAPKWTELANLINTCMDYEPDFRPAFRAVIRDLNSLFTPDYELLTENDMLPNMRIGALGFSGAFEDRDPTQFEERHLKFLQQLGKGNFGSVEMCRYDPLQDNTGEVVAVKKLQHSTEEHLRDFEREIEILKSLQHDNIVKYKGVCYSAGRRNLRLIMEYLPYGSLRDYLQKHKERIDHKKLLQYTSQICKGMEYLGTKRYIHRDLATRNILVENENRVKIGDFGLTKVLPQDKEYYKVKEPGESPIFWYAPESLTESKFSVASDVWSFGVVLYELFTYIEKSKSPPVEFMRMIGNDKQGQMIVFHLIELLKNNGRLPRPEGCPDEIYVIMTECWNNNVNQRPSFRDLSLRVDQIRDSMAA
Procedure: Rats were pretreated with 5 or 50 μmol/L of tyrphostin AG490 24 h prior to ischemia/reperfusion followed by chronic administration of tyrphostin AG490 during the process of ischemia/reperfusion. A phosphotyrosine assay was performed. Briefly, nuclear extracts from hearts subjected to ischemia/reperfusion in presence of absence of tyrphostin AG490 were immunoprecipitated with anti-phosphotyrosine antibodies (4G10). Fifty microliters of 50% protein A-agarose, prewashed in lysis buffer (Upstate Biotechnology) was then added and the mixture was incubated for 2 hr at 4° C. Each sample was washed with washing buffer containing 150 mM NaCl, 50 mM Tris-HCL (pH 7.4), 5 mM EDTA, 0.25% Triton X-100, 2 mM phenylmethylsulfonyl fluoride, aprotinin (0.2 unit/ml), 1 mM Na3VO4, and 1 mM NaF. Samples were eluted in 2× Laernmli's sample buffer. Proteins were separated on a 7.5% SDS/polyacrylamide gel and transferred to nitrocellulose membrane, Nitropure (Micron Separations, Westboro, Mass.). Blots were probed with polyclonal antibody against Jak2 and developed according to the chemiluminescence protocol. Administration of tyrphostin AG490 in perfusion medium was inhibitory at both 5 and 50 μmol/L for pliosphorylation of Jak2, which was activated readily in the ischemic heart in absence of the inhibitor (FIG. 6A).

## N#C/C(=C\c1ccc(O)c(O)c1)C(=O)NCc1ccccc1 [tyrphostin AG490]
[1]; 5 μM intra-peritoneal, 24 h before TAC and every 24 h for 9 days
  reversal of hypertrophy induced by transverse aortic constriction: remarkable reversal of hypertrophy
[1]; FIG. 2A, TAC mice
  LVH by visual inspection of cross section of the heart: decrease in LVH
[1]; FIG. 2B, TAC mice
  ratio of heart weight to body weight: decrease in ratio of heart weight to body weight
[1]; FIG. 2C, TAC mice
  hypertrophy of cardiomyocytes of left ventricle by light microscopy: decrease in hypertrophy
[1]; FIG. 3, during cardiac hypertrophy
  ANF (atrial natriuretic factor, marker for hypertrophy): ANF inhibition
[2]
  angiotensinogen mRNA level: inhibited the stimulation of the angiotensinogen mRNA level; also recorded: inhibition of angiotensinogen mRNA
[3]
  cardioprotection / myocardial damage due to ischemia: afford cardioprotection
[4]
  blood pressure: effective in lowering blood pressure to normal levels; also recorded: attenuation of hypertension
[5]; 5 μmol/L in perfusion medium
  phosphorylation of Jak2: inhibitory
[5]; 50 μmol/L in perfusion medium
  phosphorylation of Jak2: inhibitory
